Measurements published in US20070238742A1, “METHODS OF PREPARATION AND RESOLUTION OF E/Z ISOMERS OF VINYLFURO[2,3-D]PYRIMIDINE AND THEIR BIOLOGICAL ACTIVITIES AND RELATED COMPOSITIONS AND METHODS OF TREATMENT” (priority 2006, published 2007).

System: chick aorta
Assay: aortic ring assay: chick aorta pieces in culture with angiogenic agents
Type: cell-based
Conditions: for resumption of angiogenesis / regrowth of capillary-like structures on removal: after removal of the agent, relative to tissue not treated with antiangiogenic agents (control); for inhibition of angiogenesis compared with the E/Z mixture: E-isomer vs E/Z mixture 5
Procedure: Biological activity in angiogenic assays were chosen as a way to compare anti-angiogenic activity, potency an reversibility of inhibition. The studies were conducted on pieces of chick aorta placed in culture with a mixture of angiogenic agents and various compounds.
Unresolved mixture of E/Z-isomers 5 and isolated E-isomer 1 from the series of compounds under study were assessed for desirable biological activities, i.e., antiangiogenic activity and persistence of inhibitory activity. It is well known that binding vascular endothelial growth factor with antibodies or aptamers or inhibiting VEGF signaling with small molecules reduces and even reverses angiogenesis. However, angiogenesis rapidly resumes once the agent is removed (Mancuso et al., J. Clin. Invest., 116:610-21, 2006; Baffert et al., Am. J. Physiol. Heart, 290:H509-11, 2006). In the case of tumors, rapid regrowth of new vessels contributes to the regrowth and survival of the tumor.

SMILES: Nc1nc(N)c2c(C=Cc3ccc4ccccc4c3)coc2n1 [E/Z mixture 5, 5-Z/E-(2-naphthalen-2-yl-vinyl)-furo[2,3-d]pyrimidine-2,4-diamine]
- resumption of angiogenesis / regrowth of capillary-like structures on removal: ~72%
- inhibition of capillary outgrowth (aortic ring assay, compound present): 84%

SMILES: Nc1nc(N)c2c(/C=C/c3ccc4ccccc4c3)coc2n1 (single isomer, unassigned; isomer 1) [E-isomer 1, 5-E-(2-naphthalen-2-yl-vinyl)-furo[2,3-d]pyrimidine-2,4-diamine]
- resumption of angiogenesis / regrowth of capillary-like structures on removal: 31%
- inhibition of angiogenesis compared with the E/Z mixture (comparison in words): comparable inhibition of angiogenesis
- inhibition of angiogenesis compared with the E/Z mixture (comparison in words, listed as E-isomer): greater inhibition on a molar basis
- resumption of angiogenesis compared with the E/Z parent compound (comparison in words, after removal): less resumption of angiogenesis
